Experiment [1] is described as follows: DPPH free radical scavenging assay. As to conditions: concentration of 20µg/l, mean ± SD of three experiments. The format is biochemical. Summed up:
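Compound DMSO stock (1 mg/mL) added to fresh DPPH in DMSO (20 mg/L), vortexed 1 min, kept dark for 15–60 min. Absorbance at 517 nm; % scavenging = (A control − A sample)/A control × 100; triplicates averaged. Ascorbic acid served as reference.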
(The DPPH test is a chemical assay of radical scavenging.)

The test system of experiment [2] is S. aureus (ATCC 6538). Kind of experiment: Disk diffusion antimicrobial test, S. aureus. The note with it: Staphylococcus aureus, ATCC6538, Gram-positive, 20 mg per disc (title), concentration 20 µg (footnote). The format is cell-based, Staphylococcus aureus. As for the experimental part:
(§1) The newly synthesized compounds were chosen to be evaluated in vitro towards a variety of pathogenic microorganisms; Gram-positive bacteria: S. aureus (ATCC 6538) and B. subtilis (ATCC 6633); Gram-negative bacteria: P. areuginosa (ATCC 27853) and E. coli (DSMZ 1058); yeast: C. albicans (ATCC 10231) and S. cerevisiae (ATCC 9080) and fungi: A. niger (NRRL A-326) using the disk diffusion method at a single dose of 20 µl. The results are shown in Table 1 as the growth inhibition zone (mm).
(§2) The antimicrobial activity of target compounds were evaluated to be in vitro against a variety of pathogenic microorganisms, namely Staphylococcus aureus (ATCC 6538), Bacillus subtilis (ATCC 6633) (Gram-positive bacteria), Pseudomonas areuginosa (ATCC 27853), Escherichia coli (DSMZ 1058) (Gram-negative bacteria), Candida albicans (ATCC 10231), Saccharomyces cerevisiae (ATCC 9080) (Yeast) and Aspergillus niger (NRRL A-326) (Fungi) using the disk diffusion method at a single dose of 20 µg. The microorganisms were served and obtained from the Microbial Biotechnology Department, National Research Center, Giza, Egypt. Amphotericin, amoxicillin and ciprofloxacin were used as reference drugs (Oxoid™ Disks). The tested compounds 11a–c, 12a–c, 13a–i, 14a–i and 15a,b were dissolved in dimethylsulphoxide (DMSO) at a concentration of 1 mg/mL. Aliquots of 20 μl were soaked on filter paper discs (6 mm) and dried at room temperature under sterilized conditions. The paper discs were placed on inoculated agar plats and then incubated for 24 h at 37 °C for bacterial strains and after 48–72 h incubation at 30 °C for fungi. Both bacterial and yeast strains were grown on nutrient agar medium (g/l): beef extract, 3; peptone, 10 and agar, 20 at pH of 7.2. The fungal strain was grown on Czapek-Dox medium (g/l): sucrose, 30; NaNO3, 3; MgSO4.7H2O, 0.5l; KCl, 0.5; FeSO4, 0.01; K2HPO4, 1 and agar, 20 at pH of 6.0.
In general terms: A growth-free zone around the sample is the usual read-out of agar diffusion tests.

In experiment [3] the test system is A. niger (NRRL A-326). Put plainly: Disk diffusion antimicrobial test, A. niger. The class given is cell-based. The note with it: Aspergillus niger, fungi, 20 mg per disc (title), concentration 20 µg (footnote). As for the experimental part:
as §1, §2

[4] abbreviates: 15 min, read-out: Scavenging Activity (%) on DPPH radicals at 15 min.
Where [5] appears, read: 30 min, read-out: Scavenging Activity (%) on DPPH radicals at 30 min.
[6] abbreviates: 45 min, read-out: Scavenging Activity (%) on DPPH radicals at 45 min.
Where [7] appears, read: 60 min, read-out: Scavenging Activity (%) on DPPH radicals at 60 min.

Read-outs that look alike come from different tables or passages of the source.

As to `COc1cc2occc2c(OC)c1C1=NNC2(C1)C(=O)Nc1ccccc12` (stereo not shown) [Compound 11b, 5’-(4,6-Dimethoxy-benzofuran-5-yl)-2’,4’-dihydrospiro(indoline-3,3’-pyrazol)-2-one], the inhibition in experiment [1] (setting [4]) was found to be 9.6 ± 1.77%; in experiment [1] (setting [5]), 14.3 ± 1.52%; in experiment [1] (setting [6]) it was 20.4 ± 1.65%; in experiment [1] (setting [7]), 30.8 ± 2.04%.
As to `COc1c(C2=NNC3(C2)C(=O)Nc2ccccc23)c(OC)c2ccoc2c1OC` (stereo not shown) [Compound 12b, 5’-(4,6,7-Trimethoxy-benzofuran-5-yl)-2’,4’-dihydrospiro(indoline-3,3’-pyrazol)-2-one], the zone of inhibition at 20 µg/disc in experiment [2] was determined as 10 mm; in experiment [3] it was 8 mm. Further, the inhibition in experiment [1] (setting [4]) came to 17.3 ± 1.53%; in experiment [1] (setting [5]), 23.5 ± 1.64%; in experiment [1] (setting [6]) it was 30.6 ± 1.49%; in experiment [1] (setting [7]), 40.6 ± 1.46%.
With `COc1c(C2=NNC3(C2)C(=O)Nc2ccccc23)c(O)cc2occc12` (stereo not shown) [Compound 11a, 5’-(6-Hydroxy-4-methoxy-benzofuran-5-yl)-2’,4’-dihydrospiro(indoline-3,3’-pyrazol)-2-one], the inhibition in experiment [1] (setting [4]) worked out at 6.86 ± 1.17%; in experiment [1] (setting [5]), 10.3 ± 1.37%; in experiment [1] (setting [6]) it was 17.7 ± 1.28%; in experiment [1] (setting [7]), 26.9 ± 1.56%.
`COc1c(C2=NNC3(C2)C(=O)Nc2ccccc23)c(O)c(OC)c2occc12` (stereo not shown) [Compound 12a, 5’-(6-Hydroxy-4,7-dimethoxy-benzofuran-5-yl)-2’,4’-dihydrospiro(indoline-3,3’-pyrazol)-2-one] came in with a zone of inhibition at 20 µg/disc in experiment [2] of 8 mm. In addition, the inhibition was 56.4 ± 1.08% in experiment [1] (setting [4]), 67.1 ± 1.45% in experiment [1] (setting [5]), 76.9 ± 1.51% in experiment [1] (setting [6]) and 81.4 ± 1.37% in experiment [1] (setting [7]).

One may read the zone of inhibition as the extent of the growth-free halo in a diffusion test.

The values are drawn from paper PMC7179167 (Molecules, 2020).
